Assay: Pharmacokinetics in mice, single gavage
Assay type: in vivo, CD-1 mouse (male)
Conditions: CD-1 mouse, 300 mpk, plasma
Procedure: Experimental purpose: To test the pharmacokinetics of the compound in mice
CD-1 mouse (male), vehicle (0.5% (w/v) methylcellulose 0.5% (v/v) Tween 80 aqueous solution), trifluoroacetate of compound 0027.
The vehicle was an aqueous solution of 0.5% (w/v) methylcellulose and 0.5% (v/v) Tween 80, and it was prepared according to the following procedure:
Formulation of preparations for intragastric administration: […]
a. An appropriate amount of the test product was weighed and put into a glass bottle;
b. 70% volume of vehicle (0.5% (w/v) methyl cellulose 0.5% (v/v) Tween 80 aqueous solution) was added;
c. The preparation was stirred until it was visually homogeneous, and subjected to ultrasound in water bath as needed;
e. Make up the remaining volume of 0.5% methylcellulose+0.5% Tween 80, and the mixture was stirred until being visually homogeneous.
Animals in groups 1 and 2 were administrated 5 mg/mL and 30 mg/mL compounds by single gavage, with a dose volume of 10 mL/kg.
The body weight of the animals was weighed before administration, and the administration volume was calculated based on the body weight.
Whole blood samples (30 μL) were collected at the prescribed time (0.25, 0.5, 1, 2, 4, 6, 8, 24 h) through saphenous vein blood collection, and the actual blood collection time was recorded in the test record. […]

Compound: COc1cc(OC)c(Cl)c(-c2nc(-c3nc(-c4cn(C)nc4C)cnc3N)cn(C)c2=O)c1
- Tlast: 24.0 h
